# Earlier results in patent US8871812B2, “Therapeutic regimen comprising PEG-interferon, ribavirin and VX-950 for the treatment of hepatitis” (priority 2008, dated 2014).
# Tested on: HCV
# Conditions: monotherapy; cited from earlier work
substance,measurement,value
interferon alfa,cases with long term remission,~25%
